Data on eight molecules can be found in patent publication EP0349681A1, “Methods for treating hydrocarbon recovery operations and industrial waters” (PETROLITE CORPORATION, priority 1988, dated 1990).

Test [1] is described as follows: CO2 brine sparge test for sweet corrosive systems. The settings on record: 50 ppm active component, 24 hour test, 3.5 hours precorrosion, by weight loss. On the procedure: The C02 brine sparge test is a reliable, quick test to screen compounds as corrosion inhibitors in "sweet" corrosive systems. A laboratory brine solution is sparged with stirring with 99.9% grade C02 for about one hour before immersing cleaned and weighed corrosion coupons. A M-1010 Pair@ meter was used to monitor the corrosion rate of each test cell. After one to two hours the corrosion rate reached a "steady state", but a precorrosion period of 3.5 hours was used for consistency before the test inhibitor was added. The precorroding period in the […] brine solution is very important. This provides a precor- roded test surface thereby minimizing surface preparation variations and also provides at least a minimal corrosion product layer without inhibitor in it against which the test inhibitor must work. This step is important, because in the equipment, the inhibitor is only rarely used from day one and then it is used on rusted steel and not freshly sand-blasted surfaces.
The inhibitors were injected below the brine surface at 50 ppm based on the active component. The 24 hour test period was monitored with a M-1010 PAIR meter as a "back-up", but the corrosion rates and percent protection were determined by weight loss measurements.

In the next test the test system is Aerobes. Nature of the test: standard laboratory biocide screening, mixed culture. It is filed as cell-based. Particulars: 24 hours exposure, Standard Plate Count, Difco Plate Count Agar, 35° C, read-out: Aerobes (% killed). As for the experimental part: (§1) The compound of Example 4 was tested for efficacy using a standard laboratory screening procedure. The compounds were tested against a mixed culture of aerobic and anaerobic bacteria, including sulfate reducers. The test medium consisted of aged artificial sea water with 0.1 gms/liter of nutrient broth added. The medium was purged with nitrogen to remove oxygen and inoculated with 10 mis/liter of a mixed culture of aerobic and anaerobic bacteria obtained from oilfield waters. Aliquots (50 ml) were dispensed into sterile, nitrogen-filled serum vials. Concentrations of the test compounds were prepared by adding the appropriate amount of a 5% solution of the compound to 50 mls of test medium. After 24 hours, exposure levels of aerobic, anaerobic and sulfate reducing bacteria were enumerated.

A further test relates to Sulfate Reducers. Described as above. The format is cell-based. Particulars: 800 ppm, 24 hours exposure, extinction dilution in modified Sulfate API broth, 35° C. As for the experimental part:
as §1

For the next test, the system named is Anaerobes. The description is as above. It is filed as cell-based. The settings on record: 800 ppm, 24 hours exposure, extinction dilution in Difco Fluid Thioglycollate broth, 35° C. As for the experimental part:
as §1

In the case of `CCCCN(CCCC)C(=S)S` [Example 1], in test [1], the “Percent Protect” value worked out at 92.
On the same count and under the same terms, the same measure for `S=C(S)NCCNC(=S)S` [Example 2]: 85.
Consider `S=C(S)NCCCN1CCN(CCCNC(=S)S)CC1` [Example 3], for which the “Percent Protect” value in test [1] came out at 96.
`S=C(S)NCCCCC(CCCNC(=S)S)CNC(=S)S` (centres unmarked) [Example 4]: the “Percent Protect” value in test [1] is on record as 99. For the same molecule, the killing at 800 ppm with Aerobes was 99%. Also, the “Surviving Bacteria/ml Sulfate Reducers” value with Sulfate Reducers is 10 mL⁻¹. Further, the “Surviving Bacteria/ml Anaerobes” value in the test with Anaerobes is 10 mL⁻¹.
Regarding `S=C(S)NCCN(CCN(CCN(CCNC(=S)S)C(=S)S)C(=S)S)C(=S)S` [Example 5], the “Percent Protect” value in test [1] worked out at 97.
For the molecule `S=C(S)NCCCCCCN(CCCCCCNC(=S)S)C(=S)S` [Example 6], the “Percent Protect” value in test [1] was 96.
On the same count and under the same terms, with `S=C(S)NCCN(CCNC(=S)S)C(=S)S` [Example 7] the figure was 92; with `CCCCCCCCN(CCCNC(=S)S)C(=S)S` [Example 8], 96.
